Experimental data as given in patent publication US20260022142A1, “MACROCYCLIC IMMUNOMODULATORS” (Bristol-Myers Squibb Company, priority 2022, published 2026).
pIC50: −log10 of the molar value. Bridge positions count the residues as written; N and C are the ends. Square brackets hold non-standard residues; d marks the D form. Peptide text beside a SMILES is read from it. * marks the point of attachment. Phe(4-COOH) = N[C@@H](Cc1ccc(C(=O)O)cc1)C(=O)O; Bip = N[C@@H](Cc1ccc(-c2ccccc2)cc1)C(=O)O; Phe(3-Me) = Cc1cccc(C[C@H](N)C(=O)O)c1; Cha = N[C@@H](CC1CCCCC1)C(=O)O; Carboxymethyl = O=C(O)C*; Orn = NCCC[C@H](N)C(=O)O; Aun = NCCCCCCCCCCC(=O)O; Dab = NCC[C@H](N)C(=O)O; Dap = NC[C@H](N)C(=O)O; AEEA = NCCOCCOCC(=O)O

Target: T1, PD-1/PD-L1 interaction (PE-labeled human PD-L1-Ig binding to Jurkat cell line over-expressing human PD-1) (Homo sapiens, UniProt Q15116)
T1 construct: expressed in transfected cells; host or cells: Jurkat
Assay: Jurkat-PD-1 Cell Binding High-Content Screening Assay (CBA)
Format: cell-based
Conditions: Jurkat cell line over-expressing human PD-1; PE-labeled PD-L1-Ig 20 nM final; read-out: Jurkat hPD1-PDL1 IC50
In short: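 Jurkat cells stably over-expressing human PD-1 were seeded in DMEM with 10% fetal calf serum and pre-incubated with compound for 2 h at 37° C. PE-labeled human PD-L1-Ig was then added at 20 nM final for 1 hour, after which cells were fixed with paraformaldehyde, Hoechst-stained and imaged by high-content microscopy.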

T1 sequence (Q15116 25-288): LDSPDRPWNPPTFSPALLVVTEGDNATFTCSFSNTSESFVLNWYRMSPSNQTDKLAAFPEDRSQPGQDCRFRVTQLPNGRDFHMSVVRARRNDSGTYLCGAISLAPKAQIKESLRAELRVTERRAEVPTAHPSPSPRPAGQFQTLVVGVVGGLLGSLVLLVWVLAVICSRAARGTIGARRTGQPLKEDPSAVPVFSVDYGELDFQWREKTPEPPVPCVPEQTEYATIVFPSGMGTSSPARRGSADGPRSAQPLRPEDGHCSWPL

Row | pIC50 | Structure (SMILES)
1 | 7.94 | CC(C)C[C@H]1NC(=O)[C@H](CCCN)NC(=O)[C@H](C(C)C)NC(=O)[C@H](Cc2ccc(-c3ccccc3)cc2)NC(=O)[C@H](C(C)C)NC(=O)[C@H](Cc2c[nH]c3ccccc23)NC(=O)[C@H](CC(=O)O)NC(=O)[C@H](Cc2ccc(OCC(=O)O)cc2)NC(=O)[C@H](Cc2ccc(OCC(=O)O)cc2)NC(=O)CSC[C@@H](C(=O)N[C@@H](CCN)C(=O)NCCOCCOCC(=O)NCCCCCCCCCCC(=O)O)NC(=O)[C@H](CN)NC(=O)[C@H](C(C)C)NC(=O)[C@H](CC2CCCCC2)NC(=O)[C@H](CCN)NC1=O [Compound 2554] ({CH2CO}-Y(Carboxymethyl)Y(Carboxymethyl)DWV[Bip]V[Orn][dL][Dab][Cha]V[Dap]C[Dab][AEEA][Aun]-OH; thioether N-14)
2 | 7.62 | CC(C)C[C@H]1NC(=O)[C@H](CCCN)NC(=O)[C@H](C(C)C)NC(=O)[C@H](Cc2ccc(-c3ccccc3)cc2)NC(=O)[C@H](C(C)C)NC(=O)[C@H](Cc2c[nH]c3ccccc23)NC(=O)[C@H](CC(=O)O)NC(=O)[C@H](Cc2ccc(C(=O)O)cc2)NC(=O)[C@H](Cc2ccc(OCC(=O)O)cc2)NC(=O)CSC[C@@H](C(=O)N[C@@H](CCN)C(=O)NCCCCCCCCCCC(=O)O)NC(=O)[C@H](CCCCN)NC(=O)[C@H](C(C)C)NC(=O)[C@H](CC2CCCCC2)NC(=O)[C@H](CCN)NC1=O [Compound 2555] ({CH2CO}-Y(Carboxymethyl)[Phe(4-COOH)]DWV[Bip]V[Orn][dL][Dab][Cha]VKC[Dab][Aun]-OH; thioether N-14)
3 | 7.36 | CC(C)C[C@H]1NC(=O)[C@H](CCCN)NC(=O)[C@H](C(C)C)NC(=O)[C@H](Cc2ccc(-c3ccccc3)cc2)NC(=O)[C@H](C(C)C)NC(=O)[C@H](Cc2c[nH]c3ccccc23)NC(=O)[C@H](CC(=O)O)NC(=O)[C@H](Cc2ccc(OCC(=O)O)cc2)NC(=O)[C@H](Cc2ccc(OCC(=O)O)cc2)NC(=O)CSC[C@@H](C(=O)N[C@@H](CCN)C(=O)NCCCCCCCCCCC(=O)O)NC(=O)[C@H](CCCNC(=N)N)NC(=O)[C@H](C(C)C)NC(=O)[C@H](CC2CCCCC2)NC(=O)[C@H](CCN)NC1=O [Compound 2556] ({CH2CO}-Y(Carboxymethyl)Y(Carboxymethyl)DWV[Bip]V[Orn][dL][Dab][Cha]VRC[Dab][Aun]-OH; thioether N-14)
4 | 7.92 | CC(C)C[C@H]1NC(=O)[C@H](CCCN)NC(=O)[C@H](C(C)C)NC(=O)[C@H](Cc2ccc(-c3ccccc3)cc2)NC(=O)[C@H](C(C)C)NC(=O)[C@H](Cc2c[nH]c3ccccc23)NC(=O)[C@H](CC(=O)O)NC(=O)[C@H](Cc2ccc(OCC(=O)O)cc2)NC(=O)[C@H](CN)NC(=O)CSC[C@@H](C(=O)N[C@@H](CCN)C(=O)NCCCCCCCCCCC(=O)O)NC(=O)[C@H](CCCCN)NC(=O)[C@H](C(C)C)NC(=O)[C@H](CC2CCCCC2)NC(=O)[C@H](CCN)NC1=O [Compound 2557] ({CH2CO}-[Dap]Y(Carboxymethyl)DWV[Bip]V[Orn][dL][Dab][Cha]VKC[Dab][Aun]-OH; thioether N-14)
5 | 7.97 | Cc1cccc(C[C@@H]2NC(=O)[C@H](CC(=O)O)NC(=O)[C@H](Cc3ccc(OCC(=O)O)cc3)NC(=O)[C@H](CN)NC(=O)CSC[C@@H](C(=O)N[C@@H](CCN)C(=O)NCCCCCCCCCCC(=O)O)NC(=O)[C@H](CN)NC(=O)[C@H](C(C)C)NC(=O)[C@H](CC3CCCCC3)NC(=O)[C@H](CCN)NC(=O)[C@@H](CC(C)C)NC(=O)[C@H](CCCN)NC(=O)[C@H](C(C)C)NC(=O)[C@H](Cc3ccc(-c4ccccc4)cc3)NC(=O)[C@H](C(C)C)NC2=O)c1 [Compound 2558] ({CH2CO}-[Dap]Y(Carboxymethyl)D[Phe(3-Me)]V[Bip]V[Orn][dL][Dab][Cha]V[Dap]C[Dab][Aun]-OH; thioether N-14)
6 | 7.95 | Cc1cccc(C[C@@H]2NC(=O)[C@H](CC(=O)O)NC(=O)[C@H](Cc3ccc(OCC(=O)O)cc3)NC(=O)[C@H](CN)NC(=O)CSC[C@@H](C(=O)N[C@@H](CCN)C(=O)NCCCCCCCCCCC(=O)O)NC(=O)[C@H](CCCN)NC(=O)[C@H](C(C)C)NC(=O)[C@H](CC3CCCCC3)NC(=O)[C@H](CCN)NC(=O)[C@@H](CC(C)C)NC(=O)[C@H](CCCN)NC(=O)[C@H](C(C)C)NC(=O)[C@H](Cc3ccc(-c4ccccc4)cc3)NC(=O)[C@H](C(C)C)NC2=O)c1 [Compound 2559] ({CH2CO}-[Dap]Y(Carboxymethyl)D[Phe(3-Me)]V[Bip]V[Orn][dL][Dab][Cha]V[Orn]C[Dab][Aun]-OH; thioether N-14)
7 | 7.77 | Cc1cccc(C[C@@H]2NC(=O)[C@H](CC(=O)O)NC(=O)[C@H](Cc3ccc(OCC(=O)O)cc3)NC(=O)[C@H](CN)NC(=O)CSC[C@@H](C(=O)N[C@@H](CCN)C(=O)NCCCCCCCCCCC(=O)O)NC(=O)[C@H](CCCNC(=N)N)NC(=O)[C@H](C(C)C)NC(=O)[C@H](CC3CCCCC3)NC(=O)[C@H](CCN)NC(=O)[C@@H](CC(C)C)NC(=O)[C@H](CCCN)NC(=O)[C@H](C(C)C)NC(=O)[C@H](Cc3ccc(-c4ccccc4)cc3)NC(=O)[C@H](C(C)C)NC2=O)c1 [Compound 2560] ({CH2CO}-[Dap]Y(Carboxymethyl)D[Phe(3-Me)]V[Bip]V[Orn][dL][Dab][Cha]VRC[Dab][Aun]-OH; thioether N-14)
8 | 7.84 | CC(C)C[C@H]1NC(=O)[C@H](CCCN)NC(=O)[C@H](C(C)C)NC(=O)[C@H](Cc2ccc(-c3ccccc3)cc2)NC(=O)[C@H](C(C)C)NC(=O)[C@H](Cc2c[nH]c3ccccc23)NC(=O)[C@H](CC(=O)O)NC(=O)[C@H](Cc2ccc(OCC(=O)O)cc2)NC(=O)[C@H](Cc2ccc(OCC(=O)O)cc2)NC(=O)CSC[C@@H](C(=O)N[C@@H](CCN)C(=O)NCCCCCCCCCCC(=O)O)NC(=O)[C@H](CCCN)NC(=O)[C@H](C(C)C)NC(=O)[C@H](CC2CCCCC2)NC(=O)[C@H](CCN)NC1=O [Compound 2561] ({CH2CO}-Y(Carboxymethyl)Y(Carboxymethyl)DWV[Bip]V[Orn][dL][Dab][Cha]V[Orn]C[Dab][Aun]-OH; thioether N-14)
9 | 7.41 | CC(C)C[C@H]1NC(=O)[C@H](CCCN)NC(=O)[C@H](C(C)C)NC(=O)[C@H](Cc2ccc(-c3ccccc3)cc2)NC(=O)[C@H](C(C)C)NC(=O)[C@H](Cc2c[nH]c3ccccc23)NC(=O)[C@H](CC(=O)O)NC(=O)[C@H](Cc2ccc(OCC(=O)O)cc2)NC(=O)[C@H](Cc2ccc(OCC(=O)O)cc2)NC(=O)CSC[C@@H](C(=O)N[C@@H](CCN)C(=O)NCCCCCCCCCCC(=O)O)NC(=O)[C@H](CN)NC(=O)[C@H](C(C)C)NC(=O)[C@H](CC2CCCCC2)NC(=O)[C@H](CCN)NC1=O [Compound 2562] ({CH2CO}-Y(Carboxymethyl)Y(Carboxymethyl)DWV[Bip]V[Orn][dL][Dab][Cha]V[Dap]C[Dab][Aun]-OH; thioether N-14)
10 | 7.53 | CC(C)C[C@H]1NC(=O)[C@H](CCCN)NC(=O)[C@H](C(C)C)NC(=O)[C@H](Cc2ccc(-c3ccccc3)cc2)NC(=O)[C@H](C(C)C)NC(=O)[C@H](Cc2c[nH]c3ccccc23)NC(=O)[C@H](CC(=O)O)NC(=O)[C@H](Cc2ccc(C(=O)O)cc2)NC(=O)[C@H](Cc2ccc(OCC(=O)O)cc2)NC(=O)CSC[C@@H](C(=O)NCCOCCOCC(=O)NCCCCCCCCCCC(=O)O)NC(=O)[C@H](CCCCN)NC(=O)[C@H](C(C)C)NC(=O)[C@H](CC2CCCCC2)NC(=O)[C@H](CCN)NC1=O [Compound 2563] ({CH2CO}-Y(Carboxymethyl)[Phe(4-COOH)]DWV[Bip]V[Orn][dL][Dab][Cha]VKC[AEEA][Aun]-OH; thioether N-14)
11 | 8.00 | CC(C)C[C@H]1NC(=O)[C@H](CCCN)NC(=O)[C@H](C(C)C)NC(=O)[C@H](Cc2ccc(-c3ccccc3)cc2)NC(=O)[C@H](C(C)C)NC(=O)[C@H](Cc2c[nH]c3ccccc23)NC(=O)[C@H](CC(=O)O)NC(=O)[C@H](Cc2ccc(OCC(=O)O)cc2)NC(=O)[C@H](Cc2ccc(OCC(=O)O)cc2)NC(=O)CSC[C@@H](C(=O)NCCOCCOCC(=O)NCCCCCCCCCCC(=O)O)NC(=O)[C@H](CCCNC(=N)N)NC(=O)[C@H](C(C)C)NC(=O)[C@H](CC2CCCCC2)NC(=O)[C@H](CCN)NC1=O [Compound 2564] ({CH2CO}-Y(Carboxymethyl)Y(Carboxymethyl)DWV[Bip]V[Orn][dL][Dab][Cha]VRC[AEEA][Aun]-OH; thioether N-14)
12 | 8.27 | CC(C)C[C@H]1NC(=O)[C@H](CCCN)NC(=O)[C@H](C(C)C)NC(=O)[C@H](Cc2ccc(-c3ccccc3)cc2)NC(=O)[C@H](C(C)C)NC(=O)[C@H](Cc2c[nH]c3ccccc23)NC(=O)[C@H](CC(=O)O)NC(=O)[C@H](Cc2ccc(OCC(=O)O)cc2)NC(=O)[C@H](CN)NC(=O)CSC[C@@H](C(=O)NCCOCCOCC(=O)NCCCCCCCCCCC(=O)O)NC(=O)[C@H](CCCCN)NC(=O)[C@H](C(C)C)NC(=O)[C@H](CC2CCCCC2)NC(=O)[C@H](CCN)NC1=O [Compound 2565] ({CH2CO}-[Dap]Y(Carboxymethyl)DWV[Bip]V[Orn][dL][Dab][Cha]VKC[AEEA][Aun]-OH; thioether N-14)
13 | 8.03 | Cc1cccc(C[C@@H]2NC(=O)[C@H](CC(=O)O)NC(=O)[C@H](Cc3ccc(OCC(=O)O)cc3)NC(=O)[C@H](CN)NC(=O)CSC[C@@H](C(=O)NCCOCCOCC(=O)NCCCCCCCCCCC(=O)O)NC(=O)[C@H](CN)NC(=O)[C@H](C(C)C)NC(=O)[C@H](CC3CCCCC3)NC(=O)[C@H](CCN)NC(=O)[C@@H](CC(C)C)NC(=O)[C@H](CCCN)NC(=O)[C@H](C(C)C)NC(=O)[C@H](Cc3ccc(-c4ccccc4)cc3)NC(=O)[C@H](C(C)C)NC2=O)c1 [Compound 2566] ({CH2CO}-[Dap]Y(Carboxymethyl)D[Phe(3-Me)]V[Bip]V[Orn][dL][Dab][Cha]V[Dap]C[AEEA][Aun]-OH; thioether N-14)
